# Columns and labels:
# E. coli TOP10 = assay: Deep mutational scanning, site-saturation Bac7_1-23 library, intracellular self-screening with NGS; assay type: cell-based; settings: induction vs 4.5 h, n = 3, more negative = more antimicrobial
# Method: A focused strategy was pursued to generate diversity at positions 5, 18, 19, and 20 in the Bac7_1-23 peptide. […] Degeneration was introduced by using the QuikChange technique, amplifying the pBAD plasmid containing the Bac7_1-23 gene using a mixture of 20 oligonucleotides (Additional file 1: Table S1) at a final concentration of 0.3 μM and Phusion® High-Fidelity PCR Master Mix in HF buffer. The amplification was performed using 20 cycles of 98°C for 10 s, 60°C for 15 s, and 72°C for 10 s. The PCR product was treated with the enzyme Dpn1 to remove the template plasmid and subsequently purified. The purified product was used to transform 20 μl of CloneCatcher™ Gold DH5G Electrocompetent E. coli (Genlantis, Burlington, USA) cells using electroporation.
# To assess the antimicrobial activity of multiple peptides in parallel when expressed intracellularly in E. coli TOP10, previously prepared aliquots containing E. coli plasmid libraries created by either random mutagenesis or site-saturation mutagenesis were used. For both approaches, three aliquots containing approximately 500 million cells each of E. coli TOP10 harboring peptide-encoding DNA sequences on the pBAD plasmid were thawed and added to three 1-l baffled shake flasks containing 100 ml of LB medium + 100 μg ml^−1 carbenicillin. The cultures were grown for roughly 7 h at 37°C.
# E. coli ATCC 25922 = assay: In vivo efficacy, murine septicemia model; settings: 30 mg kg^−1 IP once (1 h post-infection); 10 CD-1 mice; positive control
# Method: CD-1 mice (7 weeks old, 27–28 g female) were used (Charles River, France). These animals were housed for a week of acclimation period before the experiment in a protected area in the ‘Centre de Zootechnie de l’Université de Bourgogne’ (Biosafety level 2 facility) and fed ad libitum according to the current recommendations by the European Institute of Health. Housing took place in rooms where a 12-h/12 h light/dark cycle is applied, the temperature ranges from 18 to 21°C and the relative humidity from 45 to 65%. The animal facility is authorized by the French authorities (Agreement N° C 21 464 04 EA). […]
# For animal experiments, Bac7PS was synthesized at Genscript as acetate salt and with a purity of 92%. […] First, the maximum tolerated dose (MTD) for the peptide was determined by testing different peptide doses in 8 groups with 5 animals per group. The peptide solution was administered once by intraperitoneal (IP) injection with a volume of between 94 and 240 μl (depending on the weight of the animal and the dosage) and the animals were monitored for 2 h following the injection, then 6 to 8 h later, and then once or twice a day, depending on the clinical status, up to 5 days post-injection. […] As endpoint, the wellbeing and survival rate, on a twice daily based evaluation for up to 3 days, was monitored.
# bacteria = settings: cited from earlier work
# Text: One of the most intensively researched proline-rich AMPs is bactenecin-7 (Bac7). It is a 60 amino acid long linear peptide that was first isolated from bovine neutrophils. […] Measuring the antimicrobial activity of heavily mutated variants was valuable to determine the sequence-activity relationship of Bac7_1-23 because (i) the activity of specific amino acid res ... || Bac7PS excelled over Bac7_1-23 in terms of antimicrobial activity against clinical isolates including MDR bacteria and a decreased dependency on the SbmA transporter (Fig. 4a; Table 2). […] We mainly attribute the activity gain to the increased ability to penetrate membranes, which was accompanied by a slight increase in membrane damage at higher concentrations compared to Bac7_1-23 (Fig. 4b; Additional file 1 ...
compound,measurement,setting,value
RRIRDRPPRLPRPRPRPIKDPRP [site-saturation library peptide ID 5521],lfcShrink4 (shrunken log2-fold change of abundance of peptide-encoding DNA),E. coli TOP10,-4
O=C(O)c1cn(C2CC2)c2cc(N3CCNCC3)c(F)cc2c1=O [ciprofloxacin],survival,E. coli ATCC 25922,survival of all mice
"Bac7_1-15: Bac7_1-15 (RRIRPRPPRLPRPRP; Bactenecin-7; UniProt P19661 131-145, looked up, fragment)",antimicrobial activity,bacteria,loss of antimicrobial activity
